The NIST ThermoML archive (doi:10.1016/j.tca.2014.10.019)

Experiment: mn = molality of the nth substance listed, in mol/kg
Conditions: 100 kPa, Liquid; for speed of sound: Frequency=3 MHz, Sing-around technique in a fixed-path interferometer; for mass density: Vibrating tube method

[Cl-].[Na+] [sodium chloride] + O
Conditions	mass density, 293.15 K [kg/m3]	mass density, 298.15 K [kg/m3]	mass density, 303.15 K [kg/m3]	mass density, 308.15 K [kg/m3]	mass density, 313.15 K [kg/m3]	speed of sound, 293.15 K [m/s]	speed of sound, 298.15 K [m/s]	speed of sound, 303.15 K [m/s]	speed of sound, 308.15 K [m/s]	speed of sound, 313.15 K [m/s]
m1 = 0.1	1002.42	1001.21	999.77	998.12	996.28	1489.3	1503.3	1515.5	1525.9	1534.8
m1 = 0.2	1006.67	1005.41	1003.93	1002.25	1000.38	1496.2	1509.9	1521.8	1532	1540.7
m1 = 0.3	1010.64	1009.34	1007.81	1006.1	1004.2	1502.3	1515.8	–	1537.6	1546.2

[Cl-].[K+] [potassium chloride] + O
Conditions	mass density, 293.15 K [kg/m3]	mass density, 298.15 K [kg/m3]	mass density, 303.15 K [kg/m3]	mass density, 308.15 K [kg/m3]	mass density, 313.15 K [kg/m3]	speed of sound, 293.15 K [m/s]	speed of sound, 298.15 K [m/s]	speed of sound, 303.15 K [m/s]	speed of sound, 308.15 K [m/s]	speed of sound, 313.15 K [m/s]
m1 = 0.1	1002.99	1001.79	1000.36	998.71	996.88	1488.5	1502.5	1514.6	1525.1	1534
m1 = 0.2	1007.72	1006.48	1005.02	1003.35	1001.49	1493.8	1507.3	1519.3	1529.6	1538.4
m1 = 0.3	1013.42	1012.13	1010.63	1008.94	1007.02	1497.6	1511	1522.8	1532.9	1541.6
